In patent publication US8901072B2, “Glycopeptide and lipoglycopeptide antibiotics with improved solubility” (The Medicines Company, priority 2009, dated 2014):
Converted amounts (≈) assume the structure as drawn. “And” between values parts separate entries of the source, which are not always exact repeats. Identical values can stand only once. Like-named read-outs stand apart in the source and are kept apart here.

Tests used:
[1] = Solubility in phosphate buffered saline; format: physicochemical; conditions: 10 mM phosphate buffered saline (0.138 M NaCl, 2.7 mM KCl), pH 7.4
Description: To a sample of the material of known mass were added known volumes of phosphate buffered saline until complete dissolution is observed. Suspensions were centrifuged for 5 min at 10000 rpm. […] Upon complete dissolution, the solution is diluted until the final concentration is 0.5 mg/mL to ensure that the material remains soluble over the entire range of concentrations.

S. aureus ATCC 13709 = experiment: In vitro antibacterial susceptibility (MIC, broth microdilution); format: cell-based; conditions: for MIC against S. aureus ATCC 13709, CAMHB: cation-adjusted Mueller-Hinton broth, 37° C., 18 h; for Antibacterial activity compared with oritavancin 5: deduced from the MIC data of Table 2; for MIC: Staphylococcus aureus
Description: Susceptibility of S. aureus strain ATCC13709 to oritavancin (5) and synthesized compounds was determined following the guidelines set by the Clinical and Laboratory Standards Institute (formerly the National Committee for Clinical Laboratory Standards) (M26-A). Compounds were serially diluted two-fold in either DMSO (Oritavancin 5) or in PBS and transferred to cation-adjusted Mueller Hinton broth (CAMHB; Becton Dickinson). 50 μL of compounds diluted in CAMHB was mixed with 100 μL of bacteria diluted in CAMHB in 96-well microtiter plates. The final number of micro-organisms in the assay was 5×10^5 c.f.u. per mL and the final concentration of DMSO in the assay, if present, was 1.25%. All solutions may contain 0.002% Tween as indicated. Assays were set up in duplicate and incubated at 37° C. for 18 h. The concentration of compound that inhibited visible growth was reported as the minimum inhibitory concentration (MIC).

[2] = system: S. aureus strain ATCC13709; experiment: Neutropenic mouse thigh infection model; format: in vivo, mice; conditions: for Recovered bacterial titers per thigh, 1 mg/kg / Recovered bacterial titers per thigh, 10 mg/kg / Recovered bacterial titers per thigh, 40 mg/kg: neutropenic mice, 24 h postinfection; for Recovered bacterial titers per thigh, 1 mg/kg: 1 mg/kg one hour after inoculation; for Recovered bacterial titers per thigh, 10 mg/kg: 10 mg/kg one hour after inoculation; for Recovered bacterial titers per thigh, 40 mg/kg: 40 mg/kg one hour after inoculation
Description: The susceptibility of S. aureus strain ATCC13709 to oritavancin (5) and selected synthesized compounds in vivo was evaluated with the well accepted neutropenic mouse thigh infection model (Craig, W. A. et al. Journal of Antimicrobial Chemotherapy (1991), 27 (Suppl. C):29-40). Mice were made neutropenic by treatment with cyclophosphamide (150 and 100 mg/kg of body weight administered intraperitoneally 4 days and 1 day prior to infection). Mice were anesthetized briefly with approximately 4% isoflurane just prior to inoculation. The bacterial suspension (0.1 mL) was injected intramuscularly into each thigh (approximately 10^5 colony forming units (CFU)/thigh). The selected agents were administered in 10% (w/w) β-hydroxypropylcyclodextrin in water at a concentration of 10 mg/mL one hour following bacterial inoculation. The animals were humanely sacrificed by CO2 asphyxiation 24 h postinfection. The entire thigh muscle mass including the bone was homogenized and diluted in 0.9% saline and aliquots were plated on Brain-Heart Infusion agar. Following overnight incubation at 37° C., bacteria were enumerated for each thigh and expressed as log10 CFU per thigh. This was performed over three independent experiments and oritavancin (5) was used as a comparator in each.

| Compound | Solubility (mg/mL) PBS [1] | MIC against S. aureus ATCC 13709, CAMHB + 0.002% tween (S. aureus ATCC 13709) | MIC against S. aureus ATCC 13709, CAMHB + 50% human serum (S. aureus ATCC 13709) | MIC against S. aureus ATCC 13709, CAMHB + 50% mouse serum (S. aureus ATCC 13709) | MIC against S. aureus ATCC 13709, CAMHB + 50% rat serum (S. aureus ATCC 13709; CAMHB + 50% rat serum) | MIC against S. aureus ATCC 13709, CAMHB (S. aureus ATCC 13709) | Antibacterial activity compared with oritavancin 5 (S. aureus ATCC 13709) | In vivo antibacterial efficacy compared with oritavancin ([2]; deduced from the data of Table 3) | Recovered bacterial titers per thigh, 1 mg/kg [2] | Recovered bacterial titers per thigh, 10 mg/kg [2] | Recovered bacterial titers per thigh, 40 mg/kg [2] | solubility ([1]; aqueous buffer, thermodynamic from solid, read-out: Solubility (mg/mL) PBS) | MIC (S. aureus ATCC 13709; ATCC13709, 18 h, read-out: MIC against S. aureus ATCC 13709, CAMHB) | MIC (S. aureus ATCC 13709; ATCC13709, read-out: MIC against S. aureus ATCC 13709, CAMHB + 0.002% tween) | MIC (S. aureus ATCC 13709; ATCC13709, read-out: MIC against S. aureus ATCC 13709, CAMHB + 50% human serum) | MIC (S. aureus ATCC 13709; ATCC13709, read-out: MIC against S. aureus ATCC 13709, CAMHB + 50% mouse serum) | MIC (S. aureus ATCC 13709; ATCC13709, read-out: MIC against S. aureus ATCC 13709, CAMHB + 50% rat serum) | Recovered bacterial titers per thigh, 1 mg/kg ([2]; 1 mg/kg) | Recovered bacterial titers per thigh, 10 mg/kg ([2]; 10 mg/kg) | Recovered bacterial titers per thigh, 40 mg/kg ([2]; 40 mg/kg) |
| --- | --- | --- | --- | --- | --- | --- | --- | --- | --- | --- | --- | --- | --- | --- | --- | --- | --- | --- | --- | --- |
| CNC(CC(C)C)C(=O)NC1C(=O)NC(CC(N)=O)C(=O)NC2C(=O)NC3C(=O)NC(C(=O)NC(C(=O)OCC(=O)NCCCNCCCN)c4cc(O)cc(O)c4-c4cc3ccc4O)C(OC3CC(C)(N)C(O)C(C)O3)c3ccc(c(Cl)c3)Oc3cc2cc(c3OC2OC(CO)C(O)C(O)C2OC2CC(C)(NCc3ccc(-c4ccc(Cl)cc4)cc3)C(O)C(C)O2)Oc2ccc(cc2Cl)C1O (stereo not drawn) [Compound 66] | >100 mg/mL | 0.25 µg/mL | 0.125 µg/mL | 1 µg/mL | 0.125 µg/mL | 2 µg/mL (≈ 1.02 µM) | within an order of magnitude of that of oritavancin 5 | within the same order of magnitude than oritavancin itself | 8.16 ± 0.49 Log10 CFU/thigh | 3.96 ± 1.74 Log10 CFU/thigh | 4.04 ± 0.51 Log10 CFU/thigh | – | – | – | – | – | – | – | – | – |
| CNC(CC(C)C)C(=O)NC1C(=O)NC(CC(N)=O)C(=O)NC2C(=O)NC3C(=O)NC(C(=O)NC(C(=O)OCC(=O)NCCCN)c4cc(O)cc(O)c4-c4cc3ccc4O)C(OC3CC(C)(N)C(O)C(C)O3)c3ccc(c(Cl)c3)Oc3cc2cc(c3OC2OC(CO)C(O)C(O)C2OC2CC(C)(NCc3ccc(-c4ccc(Cl)cc4)cc3)C(O)C(C)O2)Oc2ccc(cc2Cl)C1O (stereo not drawn) [Compound 90b] | ≧100 mg/mL | 0.5 µg/mL | 0.25 µg/mL | 0.5 µg/mL | – | 1 µg/mL (≈ 0.524 µM) | within an order of magnitude of that of oritavancin 5 | – | 8.61 ± 0.16 Log10 CFU/thigh | 6.44 ± 1.82 Log10 CFU/thigh | 2.97 ± 2.35 Log10 CFU/thigh | – | – | – | – | – | – | – | – | – |
| CN[C@H](CC(C)C)C(=O)N[C@H]1C(=O)N[C@@H](CC(N)=O)C(=O)N[C@H]2C(=O)N[C@H]3C(=O)N[C@H](C(=O)N[C@H](C(=O)O)c4cc(O)cc(O)c4-c4cc3ccc4O)[C@H](O[C@H]3C[C@](C)(N)[C@@H](O)[C@H](C)O3)c3ccc(c(Cl)c3)Oc3cc2cc(c3O[C@@H]2O[C@H](CO)[C@@H](O)[C@H](O)[C@H]2O[C@H]2C[C@](C)(NCc3ccc(-c4ccc(Cl)cc4)cc3)[C@@H](O)[C@H](C)O2)Oc2ccc(cc2Cl)[C@H]1O [Oritavancin (5), oritavancin, reference compound] | <0.1 mg/mL | – | – | – | – | – | – | – | – | – | – | < 0.1 mg/mL | 1 µg/mL (≈ 0.558 µM) | 0.125 µg/mL | 0.125 µg/mL | 0.25 µg/mL | 0.25 µg/mL | 8.16 ± 0.38 Log10 CFU/thigh and 7.96 ± 0.93 Log10 CFU/thigh and 7.98 ± 0.11 Log10 CFU/thigh | 5.19 ± 1.86 Log10 CFU/thigh and 3.81 ± 1.16 Log10 CFU/thigh and 3.03 ± 0.53 Log10 CFU/thigh | 2.62 ± 0.18 Log10 CFU/thigh and 2.62 ± 0.51 Log10 CFU/thigh and 2.29 ± 0.70 Log10 CFU/thigh |
